Patent US8658604B2, “Template-fixed beta-hairpin peptidomimetics with protease inhibitory activity” (Polyphor Ltd, priority 2005, dated 2014)
pIC50: −log10 of the molar value. Where a SMILES comes first, the peptide text is derived from it.

Biological target: T1, CathepsinG, from human neutrophils (Homo sapiens, UniProt P08311)
T1 sequence (P08311 21-244): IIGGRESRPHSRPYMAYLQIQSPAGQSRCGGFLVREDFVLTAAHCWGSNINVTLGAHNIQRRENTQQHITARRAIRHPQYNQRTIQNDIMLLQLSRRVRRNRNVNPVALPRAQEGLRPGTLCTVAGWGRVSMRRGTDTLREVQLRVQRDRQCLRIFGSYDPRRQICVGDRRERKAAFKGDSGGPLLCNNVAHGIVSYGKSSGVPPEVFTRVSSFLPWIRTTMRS
Assay: Enzymatic assay, cathepsin G
Conditions: Cathepsin G IC50

`CC[C@H](C)[C@@H]1NC(=O)[C@@H]2CCCN2C(=O)[C@@H]2CCCN2C(=O)[C@H](CC(=O)O)NC(=O)[C@H](CO)NC(=O)[C@H](CCCCN)NC(=O)[C@H]([C@@H](C)O)NC(=O)[C@@H]2CSSC[C@H](NC1=O)C(=O)N[C@@H](CC(N)=O)C(=O)N1CCC[C@@H]1C(=O)N1CCC[C@H]1C(=O)N[C@@H](CCc1ccccc1)C(=O)N2` [Ex. 27] (HELM PEPTIDE1{[O=C([C@H](CCc1ccccc1)N[*:1])[*:2]].C.T.K.S.D.P.P.I.C.N.[dP].P}$PEPTIDE1,PEPTIDE1,2:R3-10:R3|PEPTIDE1,PEPTIDE1,1:R1-13:R2$$$V2.0) and `CC[C@H](C)[C@@H]1NC(=O)[C@@H]2CCCN2C(=O)[C@@H]2CCCN2C(=O)[C@H](CC(=O)O)NC(=O)[C@H](CO)NC(=O)[C@H](CCCCN)NC(=O)[C@H]([C@@H](C)O)NC(=O)[C@@H]2CSSC[C@H](NC1=O)C(=O)N[C@@H](CC(=O)O)C(=O)N1CCC[C@@H]1C(=O)N1CCC[C@H]1C(=O)N[C@@H](CCc1ccccc1)C(=O)N2` [Ex. 29] (HELM PEPTIDE1{[O=C([C@H](CCc1ccccc1)N[*:1])[*:2]].C.T.K.S.D.P.P.I.C.D.[dP].P}$PEPTIDE1,PEPTIDE1,2:R3-10:R3|PEPTIDE1,PEPTIDE1,1:R1-13:R2$$$V2.0) are within 0.2 log units of each other in pIC50: 7.32 for the first, 7.38 for the second.

`CC[C@H](C)[C@@H]1NC(=O)[C@@H]2CCCN2C(=O)[C@@H]2CCCN2C(=O)[C@H](CC(=O)O)NC(=O)[C@H](CO)NC(=O)[C@H](CCCCN)NC(=O)[C@H]([C@@H](C)O)NC(=O)[C@@H]2CSSC[C@H](NC1=O)C(=O)N[C@@H](Cc1ccc(O)cc1)C(=O)N1CCC[C@@H]1C(=O)N1CCC[C@H]1C(=O)N[C@@H](Cc1ccc(N)cc1)C(=O)N2` [Ex. 32] (HELM PEPTIDE1{[Nc1ccc(C[C@H](N[*:1])C(=O)[*:2])cc1].C.T.K.S.D.P.P.I.C.Y.[dP].P}$PEPTIDE1,PEPTIDE1,2:R3-10:R3|PEPTIDE1,PEPTIDE1,1:R1-13:R2$$$V2.0) and `CC[C@H](C)[C@@H]1NC(=O)[C@@H]2CCCN2C(=O)[C@@H]2CCCN2C(=O)[C@H](CC(=O)O)NC(=O)[C@H](CO)NC(=O)[C@H](CCCCN)NC(=O)[C@H]([C@@H](C)O)NC(=O)[C@@H]2CSSC[C@H](NC1=O)C(=O)N[C@@H](CO)C(=O)N1CCC[C@@H]1C(=O)N1CCC[C@H]1C(=O)N[C@@H](Cc1cccc3ccccc13)C(=O)N2` [Ex. 62] (HELM PEPTIDE1{[O=C([C@H](Cc1cccc2ccccc12)N[*:1])[*:2]].C.T.K.S.D.P.P.I.C.S.[dP].P}$PEPTIDE1,PEPTIDE1,2:R3-10:R3|PEPTIDE1,PEPTIDE1,1:R1-13:R2$$$V2.0) are within 0.2 log units of each other in pIC50: 7.28 for the first, 7.16 for the second.

`CC[C@H](C)[C@@H]1NC(=O)[C@@H]2CCCN2C(=O)[C@@H]2CCCN2C(=O)[C@H](CC(=O)O)NC(=O)[C@H](CO)NC(=O)[C@H](CCCCN)NC(=O)[C@H]([C@@H](C)O)NC(=O)[C@@H]2CSSC[C@H](NC1=O)C(=O)N[C@@H](CC(N)=O)C(=O)N1CCC[C@@H]1C(=O)N1CCC[C@H]1C(=O)N[C@@H](CC1CCCCC1)C(=O)N2` [Ex. 33] (HELM PEPTIDE1{[Cha].C.T.K.S.D.P.P.I.C.N.[dP].P}$PEPTIDE1,PEPTIDE1,2:R3-10:R3|PEPTIDE1,PEPTIDE1,1:R1-13:R2$$$V2.0) and `CC[C@H](C)[C@@H]1NC(=O)[C@@H]2CCCN2C(=O)[C@@H]2CCCN2C(=O)[C@H](CC(=O)O)NC(=O)[C@H](CO)NC(=O)[C@H](CCCCN)NC(=O)[C@H]([C@@H](C)O)NC(=O)[C@@H]2CSSC[C@H](NC1=O)C(=O)N[C@@H](CC(=O)O)C(=O)N1CCC[C@@H]1C(=O)N1CCC[C@H]1C(=O)N[C@@H](CC1CCCCC1)C(=O)N2` [Ex. 35] (HELM PEPTIDE1{[Cha].C.T.K.S.D.P.P.I.C.D.[dP].P}$PEPTIDE1,PEPTIDE1,2:R3-10:R3|PEPTIDE1,PEPTIDE1,1:R1-13:R2$$$V2.0) are within 0.2 log units of each other in pIC50: 7.35 for the first, 7.27 for the second.

`CC[C@H](C)[C@@H]1NC(=O)[C@@H]2CCCN2C(=O)[C@@H]2CCCN2C(=O)[C@H](CC(=O)O)NC(=O)[C@H](CO)NC(=O)[C@H](CCCCN)NC(=O)[C@H]([C@@H](C)O)NC(=O)[C@@H]2CSSC[C@H](NC1=O)C(=O)N[C@@H]([C@@H](C)O)C(=O)N1CCC[C@@H]1C(=O)N1CCC[C@H]1C(=O)N[C@@H](CC1CCCCC1)C(=O)N2` [Ex. 34] (HELM PEPTIDE1{[Cha].C.T.K.S.D.P.P.I.C.T.[dP].P}$PEPTIDE1,PEPTIDE1,2:R3-10:R3|PEPTIDE1,PEPTIDE1,1:R1-13:R2$$$V2.0) and `CCCC[C@@H]1NC(=O)[C@@H]2CCCN2C(=O)[C@H]2CCCN2C(=O)[C@H](CC(N)=O)NC(=O)[C@@H]2CSSC[C@H](NC1=O)C(=O)N[C@@H]([C@@H](C)O)C(=O)N[C@@H](CCCCN)C(=O)N[C@@H](CO)C(=O)N[C@@H](CC(=O)O)C(=O)N1CCC[C@H]1C(=O)N1CCC[C@H]1C(=O)N[C@@H]([C@@H](C)CC)C(=O)N2` [Ex. 41] (HELM PEPTIDE1{[Nle].C.T.K.S.D.P.P.I.C.N.[dP].P}$PEPTIDE1,PEPTIDE1,2:R3-10:R3|PEPTIDE1,PEPTIDE1,1:R1-13:R2$$$V2.0) are within 0.2 log units of each other in pIC50: 7.25 for the first, 7.31 for the second.

Compared with `CCCC[C@@H]1NC(=O)[C@@H]2CCCN2C(=O)[C@H]2CCCN2C(=O)[C@H](CC(=O)O)NC(=O)[C@@H]2CSSC[C@H](NC1=O)C(=O)N[C@@H]([C@@H](C)O)C(=O)N[C@@H](CCCCN)C(=O)N[C@@H](CO)C(=O)N[C@@H](CC(=O)O)C(=O)N1CCC[C@H]1C(=O)N1CCC[C@H]1C(=O)N[C@@H]([C@@H](C)CC)C(=O)N2` [Ex. 43] (HELM PEPTIDE1{[Nle].C.T.K.S.D.P.P.I.C.D.[dP].P}$PEPTIDE1,PEPTIDE1,2:R3-10:R3|PEPTIDE1,PEPTIDE1,1:R1-13:R2$$$V2.0), `CC[C@H](C)[C@@H]1NC(=O)[C@@H]2CCCN2C(=O)[C@@H]2CCCN2C(=O)[C@H](CC(=O)O)NC(=O)[C@H](CO)NC(=O)[C@H](CCCCN)NC(=O)[C@H]([C@@H](C)O)NC(=O)[C@@H]2CSSC[C@H](NC1=O)C(=O)N[C@@H](CC(N)=O)C(=O)N1CCC[C@@H]1C(=O)N1CCC[C@H]1C(=O)N[C@@H](Cc1ccccc1Cl)C(=O)N2` [Ex. 45] (HELM PEPTIDE1{[O=C([C@H](Cc1ccccc1Cl)N[*:1])[*:2]].C.T.K.S.D.P.P.I.C.N.[dP].P}$PEPTIDE1,PEPTIDE1,2:R3-10:R3|PEPTIDE1,PEPTIDE1,1:R1-13:R2$$$V2.0) is 0.22 log units higher in pIC50: 7.11 for the first, 7.33 for the second. The second is the more potent here.

`CC[C@H](C)[C@@H]1NC(=O)[C@@H]2CCCN2C(=O)[C@@H]2CCCN2C(=O)[C@H](CC(=O)O)NC(=O)[C@H](CO)NC(=O)[C@H](CCCCN)NC(=O)[C@H]([C@@H](C)O)NC(=O)[C@@H]2CSSC[C@H](NC1=O)C(=O)N[C@@H](CO)C(=O)N1CCC[C@@H]1C(=O)N1CCC[C@H]1C(=O)N[C@@H](Cc1c[nH]c3ccccc13)C(=O)N2` [Ex. 61] (HELM PEPTIDE1{W.C.T.K.S.D.P.P.I.C.S.[dP].P}$PEPTIDE1,PEPTIDE1,2:R3-10:R3|PEPTIDE1,PEPTIDE1,1:R1-13:R2$$$V2.0) and `C[C@@H](O)[C@@H]1NC(=O)[C@@H]2CSSC[C@H](NC(=O)[C@H](CC3CCCCC3)NC(=O)[C@@H]3CCCN3C(=O)[C@@H]3CCCN3C(=O)[C@H](CC(=O)O)NC(=O)[C@H](CO)NC(=O)[C@H](CCCCN)NC1=O)C(=O)N[C@@H](Cc1ccc(O)cc1)C(=O)N1CCC[C@@H]1C(=O)N1CCC[C@H]1C(=O)N[C@@H](C1CCCCC1)C(=O)N2` [Ex. 66] (HELM PEPTIDE1{[O=C([C@@H](N[*:1])C1CCCCC1)[*:2]].C.T.K.S.D.P.P.[Cha].C.Y.[dP].P}$PEPTIDE1,PEPTIDE1,2:R3-10:R3|PEPTIDE1,PEPTIDE1,1:R1-13:R2$$$V2.0) are within 0.2 log units of each other in pIC50: 7.14 for the first, 7.32 for the second.

Biological target: T2, Elastase from human neutrophils (Homo sapiens, UniProt P08246)
T2 sequence (P08246 30-267): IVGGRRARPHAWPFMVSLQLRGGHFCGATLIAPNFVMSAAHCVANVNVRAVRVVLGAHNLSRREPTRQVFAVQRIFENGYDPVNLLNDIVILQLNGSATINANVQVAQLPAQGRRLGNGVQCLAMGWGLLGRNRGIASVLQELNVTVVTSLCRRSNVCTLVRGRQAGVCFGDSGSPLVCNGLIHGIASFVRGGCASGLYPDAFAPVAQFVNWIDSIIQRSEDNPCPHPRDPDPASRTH
Assay: Enzymatic assay, elastase
Conditions: Elastase IC50

`CC[C@H](C)[C@@H]1NC(=O)[C@H](CO)NC(=O)[C@H](C)NC(=O)[C@H]([C@@H](C)O)NC(=O)[C@@H]2CSSC[C@H](NC(=O)[C@H](CCC(N)=O)NC(=O)[C@@H]3CCCN3C(=O)[C@@H]3CCCN3C1=O)C(=O)N[C@@H](Cc1ccc(O)cc1)C(=O)N1CCC[C@@H]1C(=O)N[C@@H](CCC(N)=O)C(=O)N[C@@H](CCc1ccccc1)C(=O)N2` [compound 173] (HELM PEPTIDE1{[O=C([C@H](CCc1ccccc1)N[*:1])[*:2]].C.T.A.S.I.P.P.Q.C.Y.[dP].Q}$PEPTIDE1,PEPTIDE1,2:R3-10:R3|PEPTIDE1,PEPTIDE1,1:R1-13:R2$$$V2.0) and `CCCC[C@@H]1NC(=O)[C@H](CCC(N)=O)NC(=O)[C@H]2CCCN2C(=O)[C@H](Cc2ccccc2Cl)NC(=O)[C@@H]2CSSC[C@H](NC1=O)C(=O)N[C@@H]([C@@H](C)O)C(=O)N[C@@H](C)C(=O)N[C@@H](CO)C(=O)N[C@@H](CC1CCCCC1)C(=O)N1CCC[C@H]1C(=O)N1CCC[C@H]1C(=O)N[C@@H](CCC(N)=O)C(=O)N2` [compound 175] (HELM PEPTIDE1{[Nle].C.T.A.S.[Cha].P.P.Q.C.[O=C([C@H](Cc1ccccc1Cl)N[*:1])[*:2]].[dP].Q}$PEPTIDE1,PEPTIDE1,2:R3-10:R3|PEPTIDE1,PEPTIDE1,1:R1-13:R2$$$V2.0) are the same in pIC50: 7.92 for the first, 7.92 for the second.

Work on `CCCCCCCC[C@@H]1NC(=O)[C@H](CCC(N)=O)NC(=O)[C@H]2CCCN2C(=O)[C@H](CCC(N)=O)NC(=O)[C@@H]2CSSC[C@H](NC1=O)C(=O)N[C@@H]([C@@H](C)O)C(=O)N[C@@H](C)C(=O)N[C@@H](CO)C(=O)N[C@@H](CCCCCCCC)C(=O)N1CCC[C@H]1C(=O)N1CCC[C@H]1C(=O)N[C@@H](CCC(N)=O)C(=O)N2` [compound 178] (HELM PEPTIDE1{[CCCCCCCC[C@H](N[*:1])C(=O)[*:2]].C.T.A.S.[CCCCCCCC[C@H](N[*:1])C(=O)[*:2]].P.P.Q.C.Q.[dP].Q}$PEPTIDE1,PEPTIDE1,2:R3-10:R3|PEPTIDE1,PEPTIDE1,1:R1-13:R2$$$V2.0) yielded a pIC50 of 8.22.
